Data published in US5086050A, “Method of treating inflammatory disorders and psoriasis with salts of azelastine” (priority 1989, dated 1992).
Where a name gives a salt, the structure may show the parent alone. Read-outs that look alike come from different tables or passages of the source.

Tests used:
Format in all cases: physicochemical
[1] = Solubility and pH value of the aqueous solution on addition of excess acid
From the text: Addition of excess amounts of acid increases the solubility of the salts. For example a 1-fold, preferably a 0.5-fold, in particular a 0.25-fold excess of acid may be used.
For example, the addition of acids yields the following solubility and following pH value of the aqueous solution: […]

[2] = Solubility in water at room temperature (salts of the invention)
[3] = Solubility in water at 20° C. (azelastine and previously known salts)
[4] = aqueous solution, excess acid 0 mol
[5] = aqueous solution, excess acid 0.1 mol
[6] = aqueous solution, excess acid 0.25 mol

**Q.** For `CN1CCCC(n2nc(Cc3ccc(Cl)cc3)c3ccccc3c2=O)CC1` (stereo not drawn) [acetate, azelastine acetate], which pH value [1, 4] is on record?
**A.** The pH value was 6.35.

**Q.** What about the pH value [1, 5] of the same compound?
**A.** The pH value was 5.52.

**Q.** What about the Solubility ([1]; aqueous solution, excess acid 0.1 mol, read-out: Solubility) of the same compound?
**A.** The Solubility was 30 mg/mL.

**Q.** What about the pH value [1, 6] of the same compound?
**A.** The pH value was 5.1.

**Q.** What about the Solubility ([1]; aqueous solution, excess acid 0.25 mol, read-out: Solubility) of the same compound?
**A.** Its Solubility is 100 mg/mL.

**Q.** What about the Solubility ([1]; excess acid 0 mol) of the same compound?
**A.** The Solubility was 2%.

**Q.** And the Solubility in water [2]?
**A.** The Solubility in water was “more than 10%”.

**Q.** Which pH value ([1]; aqueous solution, excess acid 0.5 mol) does the source give for `CN1CCCC(n2nc(Cc3ccc(Cl)cc3)c3ccccc3c2=O)CC1` (stereo not drawn) [gluconate, azelastine gluconate] here?
**A.** Its pH value is 4.5.

**Q.** What about the Solubility ([1]; aqueous solution, excess acid 0.5 mol, read-out: Solubility) of the same compound?
**A.** The Solubility was 100 mg/mL.

**Q.** What about the Solubility in water [2] of the same compound?
**A.** Its Solubility in water is “up to 55%”.

**Q.** For `CN1CCCC(n2nc(Cc3ccc(Cl)cc3)c3ccccc3c2=O)CC1` (stereo not drawn) [malate, azelastine malate], which pH value [1, 4] is on record?
**A.** Its pH value is 3.85.

**Q.** What about the Solubility ([1]; excess acid 0 mol) of the same compound?
**A.** Its Solubility is 5%.

**Q.** And the Solubility in water [2]?
**A.** The Solubility in water was 3%.

**Q.** With `CN1CCCC(n2nc(Cc3ccc(Cl)cc3)c3ccccc3c2=O)CC1` (stereo not drawn) [lactate, azelastine lactate] as the compound, how does the pH value [1, 4] read?
**A.** Its pH value is 5.15.

**Q.** What about the pH value [1, 5] of the same compound?
**A.** Its pH value is 4.6.

**Q.** And the pH value [1, 6]?
**A.** The pH value was 4.1.

**Q.** What about the Solubility ([1]; excess acid 0 mol) of the same compound?
**A.** The Solubility was 3%.

**Q.** And the Solubility ([1]; excess acid 0.1 mol)?
**A.** The Solubility was 5%.

**Q.** And the Solubility ([1]; excess acid 0.25 mol)?
**A.** The Solubility was 10%.

**Q.** And the Solubility in water [2]?
**A.** The Solubility in water was “more than 10%”.

**Q.** Which Solubility in water [3] does the source give for `CN1CCCC(n2nc(Cc3ccc(Cl)cc3)c3ccccc3c2=O)CC1` (stereo not drawn) [hydrochloride] here?
**A.** The Solubility in water was 1%.

**Q.** With `CN1CCCC(n2nc(Cc3ccc(Cl)cc3)c3ccccc3c2=O)CC1` (stereo not drawn) [methane sulphonate] as the compound, how does the Solubility in water [3] read?
**A.** Its Solubility in water is “ca. 1%”.

**Q.** With `CN1CCCC(n2nc(Cc3ccc(Cl)cc3)c3ccccc3c2=O)CC1` (stereo not drawn) [phosphate] as the compound, how does the Solubility in water [3] read?
**A.** The Solubility in water was “ca. 1%”.

**Q.** With `CN1CCCC(n2nc(Cc3ccc(Cl)cc3)c3ccccc3c2=O)CC1` (stereo not drawn) [Azelastine, 4-(4-chlorobenzyl)-2-(perhydro-1methylazepine-4-yl)-1-(2H) phthalazinone] as the compound, how does the Solubility in water [3] read?
**A.** The Solubility in water was 0.005%.

**Q.** For `CN1CCCC(n2nc(Cc3ccc(Cl)cc3)c3ccccc3c2=O)CC1` (stereo not drawn) [succinate], which Solubility in water [3] is on record?
**A.** The Solubility in water was “ca. 1%”.

**Q.** Which Solubility in water [3] does the source give for `CN1CCCC(n2nc(Cc3ccc(Cl)cc3)c3ccccc3c2=O)CC1` (stereo not drawn) [benzene sulphonate] here?
**A.** The Solubility in water was “under 1%”.

**Q.** With `CN1CCCC(n2nc(Cc3ccc(Cl)cc3)c3ccccc3c2=O)CC1` (stereo not drawn) [maleate] as the compound, how does the Solubility in water [3] read?
**A.** Its Solubility in water is “ca. 1%”.

**Q.** For `CN1CCCC(n2nc(Cc3ccc(Cl)cc3)c3ccccc3c2=O)CC1` (stereo not drawn) [fumarate], which Solubility in water [3] is on record?
**A.** The Solubility in water was “under 1%”.

**Q.** Which Solubility in water [3] does the source give for `CN1CCCC(n2nc(Cc3ccc(Cl)cc3)c3ccccc3c2=O)CC1` (stereo not drawn) [embonate] here?
**A.** Its Solubility in water is 0.0015%.

**Q.** For `CN1CCCC(n2nc(Cc3ccc(Cl)cc3)c3ccccc3c2=O)CC1` (stereo not drawn) [toluene sulphonate], which Solubility in water [3] is on record?
**A.** Its Solubility in water is “under 1%”.
